Measured values as given in article PMC10583824, “The rational design of ARUK2007145, a dual inhibitor of the α and γ isoforms of the lipid kinase phosphatidylinositol 5-phosphate 4-kinase (PI5P4K)” (RSC Medicinal Chemistry, 2023).
pIC50: −log10 of the molar value.

Assays:
PI5P4Kα [1] = target: T1, PI5P4Kα (Homo sapiens, UniProt P48426); experiment: biochemical
T1 sequence (P48426 1-406): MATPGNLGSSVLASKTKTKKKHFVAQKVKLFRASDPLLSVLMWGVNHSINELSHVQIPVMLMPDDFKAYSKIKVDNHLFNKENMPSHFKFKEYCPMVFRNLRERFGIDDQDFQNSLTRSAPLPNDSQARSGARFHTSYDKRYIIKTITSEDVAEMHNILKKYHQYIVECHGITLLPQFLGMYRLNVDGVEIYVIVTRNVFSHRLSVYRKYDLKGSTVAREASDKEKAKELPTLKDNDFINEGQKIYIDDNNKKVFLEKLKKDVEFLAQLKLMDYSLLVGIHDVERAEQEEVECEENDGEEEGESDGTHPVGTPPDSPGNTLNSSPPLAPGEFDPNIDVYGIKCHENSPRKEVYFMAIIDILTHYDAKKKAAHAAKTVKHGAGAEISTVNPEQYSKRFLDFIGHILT

PI5P4Kγ+ [2] = target: T2, PI5P4Kγ+ (Homo sapiens, UniProt Q8TBX8, D138G/D197E/E133P/E135D/E153T/E196G/G139A/N195G/S132L/S134N); experiment: biochemical
T2 sequence (Q8TBX8 with tags, fused parts or gaps INS131LPN/S132D/E133S/S134Q/E135A/G136R/D138G/G139A/E153T/N195G/E196G/D197E): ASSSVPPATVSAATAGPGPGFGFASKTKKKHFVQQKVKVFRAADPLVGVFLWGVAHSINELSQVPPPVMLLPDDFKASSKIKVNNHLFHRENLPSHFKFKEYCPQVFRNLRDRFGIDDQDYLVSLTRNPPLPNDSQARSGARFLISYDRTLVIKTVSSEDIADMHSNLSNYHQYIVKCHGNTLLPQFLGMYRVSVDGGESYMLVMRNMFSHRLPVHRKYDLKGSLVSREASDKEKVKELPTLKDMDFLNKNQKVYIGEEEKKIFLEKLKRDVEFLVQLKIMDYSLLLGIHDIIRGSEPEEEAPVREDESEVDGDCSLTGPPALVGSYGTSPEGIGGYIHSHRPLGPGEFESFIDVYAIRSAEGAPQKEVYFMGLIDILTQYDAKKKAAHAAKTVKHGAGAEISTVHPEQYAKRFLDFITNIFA

PI5P4Kγ+ [3] = settings: ratio PI5P4Kα IC50 / PI5P4Kγ+ IC50, ADP-Glo
PI5P4Kα [4] = target: T1, PI5P4Kα; settings: for PI5P4Kα pIC50: footnote a: inconsistent replicates, value shown is upper limit; for ADP-Glo pIC50 PI5P4Kα: Table S1, two decimals, asterisk not explained
[5] = ADP-Glo pIC50 PI5P4Kα, Table S1, two decimals, asterisk not explained
[6] = ADP-Glo pIC50 PI5P4Kγ+, Table S1, two decimals, asterisk not explained
[7] = PI5P4Kγ+ pIC50, ADP-Glo, footnote a: inconsistent replicates, value shown is upper limit

Row | Structure (SMILES) | pIC50 (PI5P4Kα [1]; [5]) | pIC50 (PI5P4Kγ+ [2]; [6]) | other results
1 | CC(=O)NCc1cc2c(Nc3ccc(S(=O)(=O)C4CCCC4)cc3)ncnc2s1 | 5.36 | 7.90 | 
2 | CN(C)C(=O)c1cc2c(Nc3ccc(S(C)(=O)=O)cc3)ncnc2s1 | 5.16 | 6.25 | 
3 | COc1cnccc1-c1cc2c(Nc3ccc(C4CC4)cc3)ncnc2[nH]1 | 6.62 | 7.07 | 
4 | COc1cnccc1-c1cc2c(Nc3ccc(C)c(C)c3)ncnc2s1 | 6.56 | 6.20 | 
5 | COc1cnccc1-c1cc2c(Nc3ccc(C4CC4)cc3)ncnc2s1 | 6.57 | 7.20 | 
6 | COc1ncccc1-c1cc2c(Nc3ccc(S(C)(=O)=O)cc3)ncnc2s1 | 5.64 | 7.54 | 
7 | CS(=O)(=O)c1ccc(Nc2ncnc3sc(-c4ccc(F)cc4F)cc23)cc1 | 5.96 | 7.07 | 
8 | CS(=O)(=O)c1ccc(Nc2ncnc3sc(-c4ccc(F)cc4)cc23)cc1 | 5.01 | 7.28 | 
9 | CS(=O)(=O)c1ccc(Nc2ncnc3sc(-c4cnoc4)cc23)cc1 | 5.66 | 7.44 | 
10 | CS(=O)(=O)c1ccc(Nc2ncnc3sc(C(F)F)cc23)cc1 | 5.06 | 6.78 | 
11 | Cc1cc2c(Nc3ccc(N4CC(C)(C)CC4=O)cc3)ncnc2s1 | 5.93 | 6.88 | 
12 | Cc1cc2c(Nc3ccc(S(=O)(=O)C4CC4)cc3)ncnc2s1 | 5.11 | 7.12 | 
13 | Cc1ccc(Nc2ncnc3sc(-c4cccnc4Cl)cc23)c(C)c1 | 5.53 | 5.08 | 
14 | Clc1ncccc1-c1cc2c(Nc3ccc(C4CC4)cc3)ncnc2s1 | 6.71 | 7.17 | 
15 | O=C(NCc1cc2c(Nc3ccc(S(=O)(=O)C4CCCC4)cc3)ncnc2s1)c1ccc(C2(C(F)(F)F)N=N2)cc1 | 5.28 | 7.40 | 
16 | N#Cc1cc2c(Nc3ccc(S(=O)(=O)C4CCCC4)cc3)ncnc2s1 | 5.33 | 7.31 | 
17 | Cc1c(C(=O)O)sc2ncnc(Nc3ccc(C(C)C)cc3)c12 [CC(C)c1ccc(cc1)Nc1ncnc2sc(c(c12)C)C(=O)O] | 5.56 |  | 
18 | CCc1cc2c(Nc3ccc(N4CCCC4=O)c(C)c3)ncnc2s1 [CCc1cc2c(ncnc2s1)Nc1ccc(c(c1)C)N1CCCC1=O] | 5.01 | 6.54 | 
19 | CCc1ccc(Nc2ncnc3sc(-c4cccnc4Cl)cc23)cc1 [CCc1ccc(cc1)Nc1ncnc2sc(cc12)-c1cccnc1Cl] | 6.49 | 6.82 | 
20 | CC(=O)N(C)c1ccc(Nc2ncnc3sc(C)cc23)cc1 [CN(C(=O)C)c1ccc(cc1)Nc1ncnc2sc(cc12)C] | 5.95 |  | 

Row | Structure (SMILES) | pIC50 (PI5P4Kα [1]; [5]) | pIC50 (PI5P4Kγ+ [2]; [6]) | other results
21 | COc1cc(Nc2ncnc3sc(C)cc23)ccc1N1CCCC1=O [COc1cc(ccc1N1CCCC1=O)Nc1ncnc2sc(cc12)C] | 5.14 | 6.67 | 
22 | COc1cnccc1-c1cc2c(Nc3ccc(Cl)cc3)ncnc2s1 [COc1cnccc1-c1cc2c(ncnc2s1)Nc1ccc(cc1)Cl] | 5.88 | 7.20 | 
23 | COc1cnccc1-c1cc2c(Nc3ccc(SC)cc3)ncnc2s1 [COc1cnccc1-c1cc2c(ncnc2s1)Nc1ccc(cc1)SC] | 6.89 | 7.82 | 
24 | COc1cnccc1-c1cc2c(Nc3ccc(C)cc3C)ncnc2s1 [COc1cnccc1-c1cc2c(ncnc2s1)Nc1ccc(cc1C)C] | 5.30 | 5.13 | 
25 | COc1cnccc1-c1cc2ncnc(Nc3ccc(SC)cc3)c2s1 [COc1cnccc1-c1cc2ncnc(c2s1)Nc1ccc(cc1)SC] | 6.31 | 7.27 | 
26 | CSc1ccc(Nc2ncnc3cc(-c4c(C)noc4C)sc23)cc1 [CSc1ccc(cc1)Nc1ncnc2cc(sc12)-c1c(noc1C)C] | 7.65 | 7.49 | 
27 | CSc1ccc(Nc2ncnc3cc(-c4cccnc4C)sc23)cc1 [CSc1ccc(cc1)Nc1ncnc2cc(sc12)-c1cccnc1C] | 7.11 | 7.77 | 
28 | CSc1ccc(Nc2ncnc3sc(-c4cncnc4)cc23)cc1 [CSc1ccc(cc1)Nc1ncnc2sc(cc12)-c1cncnc1] | 6.63 | 7.53 | 
29 | CSc1ccc(Nc2ncnc3sc(C)cc23)cc1 [CSc1ccc(cc1)Nc1ncnc2sc(cc12)C] | 5.63 | 6.75 | 
30 | Cc1cc2c(Nc3ccc(N4CCCC4=O)c(C)c3)ncnc2s1 [Cc1cc2c(ncnc2s1)Nc1ccc(c(c1)C)N1CCCC1=O] | 5.27 | 6.70 | 
31 | Cc1cc2c(Nc3ccc(Br)cc3)ncnc2s1 [Cc1cc2c(ncnc2s1)Nc1ccc(cc1)Br] | 5.16 |  | 
32 | Cc1cc(Nc2ncnc3sc(-c4cccnc4Cl)cc23)ccc1Cl [Cc1cc(ccc1Cl)Nc1ncnc2sc(cc12)-c1cccnc1Cl] | 5.53 | 6.41 | 
33 | Cc1cc(Cl)ccc1Nc1ncnc2sc(-c3cccnc3Cl)cc12 [Cc1cc(ccc1Nc1ncnc2sc(cc12)-c1cccnc1Cl)Cl] | 5.28 | 5.10 | 
34 | Cc1ccc(Nc2ncnc3sc(-c4cccnc4Cl)cc23)cc1 [Cc1ccc(cc1)Nc1ncnc2sc(cc12)-c1cccnc1Cl] | 6.58 | 6.37 | 
35 | Cc1ccc(Nc2ncnc3sc(-c4cccnc4Cl)cc23)cc1C [Cc1ccc(cc1C)Nc1ncnc2sc(cc12)-c1cccnc1Cl] | 6.31 | 5.07 | 
36 | COc1ccc(-n2ncc3c(Nc4ccc(OC)c(Cl)c4)ncnc32)cc1 [Compound 4, reference compound] |  |  | Fold-selectivity (α IC50/γ IC50) (PI5P4Kγ+ [3]): 0.032; pIC50 (PI5P4Kγ+ [2]; [7]): 4.90
37 | CS(=O)(=O)c1ccc(Nc2ncnc3sc(-c4ccncc4F)cc23)cc1 [Compound 12] |  |  | PI5P4Kα pIC50 (PI5P4Kα [4]; ADP-Glo): <4.6; Fold-selectivity (α IC50/γ IC50) (PI5P4Kγ+ [3]): >250; pIC50 (PI5P4Kγ+ [2]; [7]): 7.00
38 | CS(=O)(=O)c1ccc(Nc2ncnc3scc(C4CC4)c23)cc1 [Compound 33] |  |  | PI5P4Kα pIC50 (PI5P4Kα [4]; ADP-Glo): <4.8; pIC50 (PI5P4Kγ+ [2]; [7]): 7.00
39 | CS(=O)(=O)c1ccc(Nc2ncnc3ccsc23)cc1 [Compound 36] |  |  | PI5P4Kα inhibition (in words) (PI5P4Kα [4]; ADP-Glo): undetectable; PI5P4Kα pIC50 (PI5P4Kα [4]; ADP-Glo): <4.3; pIC50 (PI5P4Kγ+ [2]; [7]): 7.30

Second part, led by results:

Row | pIC50 (PI5P4Kα [1]; [5]) | pIC50 (PI5P4Kγ+ [2]; [6]) | Structure (SMILES) | other results
40 | 5.84 | 5.63 | Cc1cccc(Nc2ncnc3sc(-c4cccnc4Cl)cc23)c1 [Cc1cccc(c1)Nc1ncnc2sc(cc12)-c1cccnc1Cl] | 
41 |  | 7.81 | CS(=O)(=O)c1ccc(Nc2ncnc3sc(-c4cn[nH]c4)cc23)cc1 [Compound 7] | PI5P4Kα pIC50 (PI5P4Kα [4]; ADP-Glo): 5.9; ADP-Glo pIC50 PI5P4Kα (PI5P4Kα [4]): 5.88; Fold-selectivity (α IC50/γ IC50) (PI5P4Kγ+ [3]): 79; pIC50 (PI5P4Kγ+ [2]; [7]): 7.80
42 | 5.83 |  | CS(=O)(=O)c1ccc(Nc2ncnc3sc(-c4cccnc4F)cc23)cc1 [Compound 16] | Fold-selectivity (α IC50/γ IC50) (PI5P4Kγ+ [3]): 50; pIC50 (PI5P4Kα [1]; PI5P4Kα pIC50, ADP-Glo, footnote a: inconsistent replicates, value shown is upper limit): ≤ 5.80; pIC50 (PI5P4Kγ+ [2]; [7]): 7.50
43 |  | 5.87 | Cc1ccc(Nc2ncnc3sc(-c4cccnc4C)cc23)cc1C [Compound 18] | PI5P4Kα pIC50 (PI5P4Kα [4]; ADP-Glo): 6.5; ADP-Glo pIC50 PI5P4Kα (PI5P4Kα [4]): 6.48; Fold-selectivity (α IC50/γ IC50) (PI5P4Kγ+ [3]): 0.25; pIC50 (PI5P4Kγ+ [2]; [7]): 5.90
44 |  | 5.36 | Cc1ccc(Nc2ncnc3sc(-c4cccnc4C)cc23)c(C)c1 [Compound 19] | PI5P4Kα pIC50 (PI5P4Kα [4]; ADP-Glo): 5.5; ADP-Glo pIC50 PI5P4Kα (PI5P4Kα [4]): 5.48; Fold-selectivity (α IC50/γ IC50) (PI5P4Kγ+ [3]): 0.79; pIC50 (PI5P4Kγ+ [2]; [7]): 5.40
45 |  | 5.72 | COc1ccc(Nc2ncnc3sc(-c4cccnc4C)cc23)cc1 [Compound 20] | PI5P4Kα pIC50 (PI5P4Kα [4]; ADP-Glo): 5.9; ADP-Glo pIC50 PI5P4Kα (PI5P4Kα [4]): 5.88; Fold-selectivity (α IC50/γ IC50) (PI5P4Kγ+ [3]): 0.69; pIC50 (PI5P4Kγ+ [2]; [7]): 5.70
46 |  | 5.81 | Cc1ccc(Nc2ncnc3sc(-c4cccnc4C)cc23)cc1 [Compound 22] | PI5P4Kα pIC50 (PI5P4Kα [4]; ADP-Glo): 6.2; ADP-Glo pIC50 PI5P4Kα (PI5P4Kα [4]): 6.22; Fold-selectivity (α IC50/γ IC50) (PI5P4Kγ+ [3]): 0.4; pIC50 (PI5P4Kγ+ [2]; [7]): 5.80
47 |  | 6.41 | CCc1ccc(Nc2ncnc3sc(-c4cccnc4C)cc23)cc1 [Compound 23] | PI5P4Kα pIC50 (PI5P4Kα [4]; ADP-Glo): 6.2; ADP-Glo pIC50 PI5P4Kα (PI5P4Kα [4]): 6.22; Fold-selectivity (α IC50/γ IC50) (PI5P4Kγ+ [3]): 1.6; pIC50 (PI5P4Kγ+ [2]; [7]): 6.40
48 |  | 6.96 | Cc1ncccc1-c1cc2c(Nc3ccc(C4CC4)cc3)ncnc2s1 [Compound 24] | PI5P4Kα pIC50 (PI5P4Kα [4]; ADP-Glo): 6.6; ADP-Glo pIC50 PI5P4Kα (PI5P4Kα [4]): 6.62; Fold-selectivity (α IC50/γ IC50) (PI5P4Kγ+ [3]): 2.5; pIC50 (PI5P4Kγ+ [2]; [7]): 7.00
49 |  | 7.37 | CSc1ccc(Nc2ncnc3sc(-c4cnoc4)cc23)cc1 [Compound 29] | PI5P4Kα pIC50 (PI5P4Kα [4]; ADP-Glo): 6.6; ADP-Glo pIC50 PI5P4Kα (PI5P4Kα [4]): 6.59; Fold-selectivity (α IC50/γ IC50) (PI5P4Kγ+ [3]): 6.0; pIC50 (PI5P4Kγ+ [2]; [7]): 7.40
50 |  | 7.61 | CSc1ccc(Nc2ncnc3sc(-c4c(C)noc4C)cc23)cc1 [Compound 30] | PI5P4Kα pIC50 (PI5P4Kα [4]; ADP-Glo): 6.8; ADP-Glo pIC50 PI5P4Kα (PI5P4Kα [4]): 6.81; Fold-selectivity (α IC50/γ IC50) (PI5P4Kγ+ [3]): 6.3; pIC50 (PI5P4Kγ+ [2]; [7]): 7.60
